Results from ChEMBL document CHEMBL1275318, “The preparation of bi-functional organophosphine oxides as potential antitumor agents” (Eur J Med Chem, 2010).
Values after ≈ are worked out from the molar mass of the structure shown. Values joined by “and” are separate entries in the source; they are usually repeats but may differ in a detail not shown here. Identical values can stand only once. Active and inactive are the calls of the source. No cut-off for these calls is given here.

What was measured:
[1] = Cytotoxicity against human Hep3B cells after 48 hrs by SRB assay; type: functional, cell-based, Hep 3B2
[2] = system: Mus musculus; experiment: Toxicity in human Hep3B cells xenografted athymic nude mouse assessed as induction of necrotic damage in kidney at 10 mg/kg/day, ip for 4 consecutive days; type: organism-based, Hep 3B2; set-up: route intraperitoneal; settings: in vivo
[3] = system: Hep 3B2; experiment: Antitumor activity against human Hep3B cells xenografted in athymic nude mouse assessed as retardation of tumor growth at 10 mg/kg/day, ip for 4 consecutive days; type: functional, organism-based
[4] = system: Mus musculus; experiment: Toxicity in human Hep3B cells xenografted athymic nude mouse assessed as induction of necrotic damage in liver at 10 mg/kg/day, ip for 4 consecutive days; type: organism-based, Hep 3B2; set-up: route intraperitoneal; settings: in vivo
[5] = Homo sapiens, Hep3B, 48 h, read-out: IC50

SMILES | IC50 [1, 5] [µg/mL] | IC50 ([1]; hep 3b2) | Activity [2] | inhibition [3] | Activity [4]
COc1cc(P(=O)(c2ccccc2)c2ccccc2)c(-c2c(P(=O)(c3ccccc3)c3ccccc3)cc(OC)nc2OC)c(OC)n1 | 47 (≈ 69.5 µM) | 43 µg/mL and 42 µg/mL |  |  | 
O=P(c1ccccc1)(c1ccccc1)c1ccc2ccccc2c1-c1c(P(=O)(c2ccccc2)c2ccccc2)ccc2ccccc12 | 14 (≈ 21.4 µM) | 12 µg/mL (≈ 18.3 µM) | Non-toxic | Active | Non-toxic
c1ccc(P(c2ccccc2)c2ccc3ccccc3c2-c2c(P(c3ccccc3)c3ccccc3)ccc3ccccc23)cc1 | > 50 |  |  |  | 
COc1cc(P(c2ccccc2)c2ccccc2)c(-c2c(P(c3ccccc3)c3ccccc3)cc(OC)nc2OC)c(OC)n1 | > 50 |  |  |  | 
